Measured values: PMC5811606, “Characterization of ^111In-labeled Glucose-Dependent Insulinotropic Polypeptide as a Radiotracer for Neuroendocrine Tumors” (Scientific Reports, 2018)
Read-outs that look alike come from different tables or passages of the source.

Legend:
[1] = target: T1, GIPR on the islets of Langerhans (Mus musculus, UniProt Q0P543); test: In vitro binding to isolated islets; settings: islets of C3H mice, 24 hours, 37 °C, + 25 µg unlabeled GIP1-42, mean ± SD
T1 construct: Islets of Langerhans were isolated from donor C3H mice by collagenase digestion; from tissue; host or cells: isolated islets of Langerhans from C3H mice
T1 sequence (Q0P543 19-460): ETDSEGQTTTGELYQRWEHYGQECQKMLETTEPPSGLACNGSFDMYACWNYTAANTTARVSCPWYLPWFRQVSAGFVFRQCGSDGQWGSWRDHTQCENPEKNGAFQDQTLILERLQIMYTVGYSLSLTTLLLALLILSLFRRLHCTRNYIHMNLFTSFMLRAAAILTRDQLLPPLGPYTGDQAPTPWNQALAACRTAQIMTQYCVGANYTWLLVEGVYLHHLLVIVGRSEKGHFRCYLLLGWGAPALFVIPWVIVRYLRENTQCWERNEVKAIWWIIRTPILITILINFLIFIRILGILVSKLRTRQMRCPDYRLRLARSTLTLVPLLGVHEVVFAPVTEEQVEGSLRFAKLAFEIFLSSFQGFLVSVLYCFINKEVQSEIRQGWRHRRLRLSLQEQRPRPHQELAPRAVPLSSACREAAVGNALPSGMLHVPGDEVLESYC
Description: Islets of Langerhans were isolated from donor C3H mice by collagenase digestion as follows. Mice were euthanized by CO2/O2 suffocation and 2 ml of ice cold RPMI 1640 containing 1 mg/ml collagenase type V (Sigma Aldrich) were infused via the pancreatic duct in situ. After dissection, the perfused pancreata were collected in serum free medium containing collagenase and kept on ice until digestion. Pancreata were digested for 12 min at 37 °C. Digestion was stopped by adding RPMI medium containing 10% FCS, 2 mM L-glutamine, 100 U/ml penicillin and 100 U/ml streptomycin (complete RPMI). After washing, digested pancreata were passed through a mesh. Afterwards, islets were purified on a discontinuous Ficoll gradient (densities: 1.108; 1.096; 1.037; Cellgro by Mediatech Inc, Manassas, VA, USA) by centrifugation at 625 × g for 16 min without brake. Islets were collected from the intersection of the second and third layer and remaining Ficoll was removed by washing with complete RPMI. Isolated islets were cultured overnight in complete RPMI medium in a humidified atmosphere containing 5% CO2 at 37 °C.
After overnight recovery from the isolation procedure, islets from the donor C3H mice were collected, counted and resuspended in complete RPMI. […] After incubation, islets were washed extensively with binding buffer and islet-associated radioactivity was measured in a well type gamma counter.

[2] = Biodistribution study, NES2Y tumor mice; type: in vivo; settings: female, mouse, iv, total radioactivity, i.v., 0.2 µg; for tissue uptake at 1 h: BALB/c nude; for tissue to tissue ratio at 1 h: NES2Y tumor BALB/c nude mice
Description: All animal experiments were approved by the Animal Welfare Body of the Radboud University, Nijmegen, The Netherlands and carried out in accordance with their guidelines. Six to eight weeks old, female BALB/c nude mice and C3H mice were purchased from Janvier labs (Le Genest Saint Isle, France). For all in vivo experiments, 6-8 weeks old female BALB/c nude mice were injected subcutaneously in the right shoulder with 0.2 ml of a 2.5 × 10^7 cells/ml suspension of BHK-GIPR transfected cells or with 0.2 ml of a 2.5 × 10^7 cells/ml suspension of NES2Y cells mixed with matrigel (2:1) in the right shoulder. When the tumor reached a diameter of 2-5 mm, mice were randomly divided in groups.
BALB/c nude mice bearing BHK-GIPR transfected tumors were injected intravenously with approximately 3 MBq (peptide dose 0.2 µg = 0.04 nmol) of [Lys^37(^111In-DTPA)]N-acetyl-GIP1-42 via the tail vein. At various time points after injection (1, 4 and 24 hours), mice were euthanized by CO2/O2 suffocation and blood, tumor and other relevant tissues were dissected, weighed and measured in a well type gamma counter. The percentage injected dose per gram (%ID/g) was calculated for each tissue. To determine whether the GIP1-42 uptake was GIPR mediated, 25 µg of unlabeled GIP1-42 was co-injected in a separate group (n = 5) and mice were euthanized four hours post-injection. BALB/c nude mice bearing NES2Y tumors (n = 5) were injected intravenously with approximately 3 MBq (peptide dose 0.2 µg = 0.04 nmol) of [Lys^37(^111In-DTPA)]N-acetyl-GIP1-42 via the tail vein. One hour after injection, mice were euthanized by CO2/O2 suffocation and blood, tumor and other relevant tissues were dissected, weighed and measured in a well type gamma counter. The percentage injected dose per gram (%ID/g) was determined for each tissue. To determine whether the GIP1-42 uptake was GIPR mediated, 25 µg of unlabeled GIP1-42 was co-injected in a separate group (n = 2) and mice were euthanized one hours post-injection.

CC[C@H](C)[C@H](NC(=O)[C@H](CO)NC(=O)[C@H](Cc1ccc(O)cc1)NC(=O)[C@H](CC(=O)O)NC(=O)[C@H](CO)NC(=O)[C@@H](NC(=O)[C@H](Cc1ccccc1)NC(=O)[C@@H](NC(=O)CNC(=O)[C@H](CCC(=O)O)NC(=O)[C@H](C)NC(=O)[C@H](Cc1ccc(O)cc1)NC(C)=O)[C@@H](C)O)[C@@H](C)CC)C(=O)N[C@@H](C)C(=O)N[C@@H](CCSC)C(=O)N[C@@H](CC(=O)O)C(=O)N[C@@H](CCCCN)C(=O)N[C@H](C(=O)N[C@@H](Cc1c[nH]cn1)C(=O)N[C@@H](CCC(N)=O)C(=O)N[C@@H](CCC(N)=O)C(=O)N[C@@H](CC(=O)O)C(=O)N[C@@H](Cc1ccccc1)C(=O)N[C@H](C(=O)N[C@@H](CC(N)=O)C(=O)N[C@@H](Cc1c[nH]c2ccccc12)C(=O)N[C@@H](CC(C)C)C(=O)N[C@@H](CC(C)C)C(=O)N[C@@H](C)C(=O)N[C@@H](CCC(N)=O)C(=O)N[C@@H](CCCCN)C(=O)NCC(=O)N[C@@H](CCCCN)C(=O)N[C@@H](CCCCN)C(=O)N[C@@H](CC(N)=O)C(=O)N[C@@H](CC(=O)O)C(=O)N[C@@H](Cc1c[nH]c2ccccc12)C(=O)N[C@@H](CCCCNC(=O)CN(CCN(CCN(CC(=O)O)CC(=O)O)CC(=O)O)CC(=O)O)C(=O)N[C@@H](Cc1c[nH]cn1)C(=O)N[C@@H](CC(N)=O)C(=O)N[C@H](C(=O)N[C@H](C(=O)N[C@@H](CCC(N)=O)C(=O)O)[C@@H](C)O)[C@@H](C)CC)C(C)C)[C@@H](C)CC [[Lys^37(^111In-DTPA)]N-acetyl-GIP1-42, metal not drawn]
tracer bound to 200 isolated islets with excess unlabeled GIP1-42 [1]: 0.03 ± 0.01 fmol | tissue uptake at 1 h ([2]; NES2Y tumor, 0.2 ug, 1 h p.i., mean n=5, read-out: Tumor uptake): 0.7 ± 0.2 %ID/g | tissue uptake at 1 h ([2]; NES2Y tumor, 1 h p.i. + xs (25 µg unlabeled GIP1-42), mean, n=5, read-out: Tumor uptake): 0.6 ± 0.01 %ID/g | tissue uptake at 1 h ([2]; duodenum, 0.2 ug, 1 h p.i., mean n=5, read-out: Duodenum uptake): 0.42 %ID/g | tissue uptake at 1 h ([2]; duodenum, 1 h p.i. + xs (25 µg unlabeled GIP1-42), mean, n=5, read-out: Duodenum uptake): 0.369 %ID/g | tissue uptake at 1 h ([2]; heart, 0.2 ug, 1 h p.i., mean n=5, read-out: Heart uptake): 0.135 %ID/g | tissue uptake at 1 h ([2]; heart, 1 h p.i. + xs (25 µg unlabeled GIP1-42), mean, n=5, read-out: Heart uptake): 0.103 %ID/g | tissue uptake at 1 h ([2]; kidney, 0.2 ug, 1 h p.i., mean n=5, read-out: Kidney uptake): 184 %ID/g | tissue uptake at 1 h ([2]; kidney, 1 h p.i. + xs (25 µg unlabeled GIP1-42), mean, n=5, read-out: Kidney uptake): 180 %ID/g | tissue uptake at 1 h ([2]; liver, 0.2 ug, 1 h p.i., mean n=5, read-out: Liver uptake): 1.1 %ID/g | tissue uptake at 1 h ([2]; liver, 1 h p.i. + xs (25 µg unlabeled GIP1-42), mean, n=5, read-out: Liver uptake): 0.827 %ID/g | tissue uptake at 1 h ([2]; lung, 0.2 ug, 1 h p.i., mean n=5, read-out: Lung uptake): 0.485 %ID/g | tissue uptake at 1 h ([2]; lung, 1 h p.i. + xs (25 µg unlabeled GIP1-42), mean, n=5, read-out: Lung uptake): 0.474 %ID/g | tissue uptake at 1 h ([2]; muscle, 0.2 ug, 1 h p.i., mean n=5, read-out: Muscle uptake): 0.069 %ID/g | tissue uptake at 1 h ([2]; muscle, 1 h p.i. + xs (25 µg unlabeled GIP1-42), mean, n=5, read-out: Muscle uptake): 0.057 %ID/g | tissue uptake at 1 h ([2]; pancreas, 0.2 ug, 1 h p.i., mean n=5, read-out: Pancreas uptake): 0.201 %ID/g | tissue uptake at 1 h ([2]; pancreas, 1 h p.i. + xs (25 µg unlabeled GIP1-42), mean, n=5, read-out: Pancreas uptake): 0.158 %ID/g | tissue uptake at 1 h ([2]; spleen, 0.2 ug, 1 h p.i., mean n=5, read-out: Spleen uptake): 0.462 %ID/g | tissue uptake at 1 h ([2]; spleen, 1 h p.i. + xs (25 µg unlabeled GIP1-42), mean, n=5, read-out: Spleen uptake): 0.341 %ID/g | tissue uptake at 1 h ([2]; stomach, 0.2 ug, 1 h p.i., mean n=5, read-out: Stomach uptake): 0.336 %ID/g | tissue uptake at 1 h ([2]; stomach, 1 h p.i. + xs (25 µg unlabeled GIP1-42), mean, n=5, read-out: Stomach uptake): 0.283 %ID/g | tissue uptake at 1 h ([2]; whole blood, 0.2 ug, 1 h p.i., mean n=5, read-out: Blood uptake): 0.175 %ID/g | tissue uptake at 1 h ([2]; whole blood, 1 h p.i. + xs (25 µg unlabeled GIP1-42), mean, n=5, read-out: Blood uptake): 0.214 %ID/g | tissue to tissue ratio at 1 h ([2]; tumor and blood, 0.2 ug, 1 h p.i., mean n=5, read-out: Tumor/Blood): 3.96 | tissue to tissue ratio at 1 h ([2]; tumor and blood, 1 h p.i. + xs (25 µg unlabeled GIP1-42), mean, n=5, read-out: Tumor/Blood): 3.01 | tissue to tissue ratio at 1 h ([2]; tumor and heart, 0.2 ug, 1 h p.i., mean n=5, read-out: Tumor/Heart): 4.83 | tissue to tissue ratio at 1 h ([2]; tumor and heart, 1 h p.i. + xs (25 µg unlabeled GIP1-42), mean, n=5, read-out: Tumor/Heart): 6.09 | tissue to tissue ratio at 1 h ([2]; tumor and kidney, 0.2 ug, 1 h p.i., mean n=5, read-out: Tumor/Kidney): 0.004 | tissue to tissue ratio at 1 h ([2]; tumor and kidney, 1 h p.i. + xs (25 µg unlabeled GIP1-42), mean, n=5, read-out: Tumor/Kidney): 0.004 | tissue to tissue ratio at 1 h ([2]; tumor and lung, 0.2 ug, 1 h p.i., mean n=5, read-out: Tumor/Lung): 1.38 | tissue to tissue ratio at 1 h ([2]; tumor and lung, 1 h p.i. + xs (25 µg unlabeled GIP1-42), mean, n=5, read-out: Tumor/Lung): 1.33 | tissue to tissue ratio at 1 h ([2]; tumor and muscle, 0.2 ug, 1 h p.i., mean n=5, read-out: Tumor/Muscle): 9.43 | tissue to tissue ratio at 1 h ([2]; tumor and muscle, 1 h p.i. + xs (25 µg unlabeled GIP1-42), mean, n=5, read-out: Tumor/Muscle): 11.1
